Assay results from article PMC6504913 (Angewandte Chemie (International ed. in English), 2018).

Columns and labels:
[1] = system: RAW 264.7 cells; experiment: LPS-induced NO2^– formation in macrophage RAW 264.7 cells; format: cell-based; conditions: 25 μM pretreatment 6 h, then LPS 1.0 μg/mL 18 h
[2] = format: physicochemical; conditions: pH 7.4 aqueous buffer

Molecule | effect on LPS-induced NO2^– production [1] | stability in aqueous buffer (PNA formation) [2]
C1COCCN1.COc1ccc(P(=S)(S)N2CCOCC2)cc1 (centres unmarked) [GYY4137] | less pronounced effect | 
n-butylthiocarbamate [n-BuTCM-1] |  | stable
